Blank lines part the entries; values can stand above or below the compound they belong to.
What was measured:
Histone deacetylase 2 [1] = molecular target: T1, Histone deacetylase 2 (Homo sapiens, UniProt Q92769); assay: Inhibition of HDAC2 (unknown origin)
Histone deacetylase 8 = molecular target: T2, Histone deacetylase 8 (Homo sapiens, UniProt Q9BY41); assay: Inhibition of HDAC8 (unknown origin)
T2 sequence (Q9BY41 whole entry): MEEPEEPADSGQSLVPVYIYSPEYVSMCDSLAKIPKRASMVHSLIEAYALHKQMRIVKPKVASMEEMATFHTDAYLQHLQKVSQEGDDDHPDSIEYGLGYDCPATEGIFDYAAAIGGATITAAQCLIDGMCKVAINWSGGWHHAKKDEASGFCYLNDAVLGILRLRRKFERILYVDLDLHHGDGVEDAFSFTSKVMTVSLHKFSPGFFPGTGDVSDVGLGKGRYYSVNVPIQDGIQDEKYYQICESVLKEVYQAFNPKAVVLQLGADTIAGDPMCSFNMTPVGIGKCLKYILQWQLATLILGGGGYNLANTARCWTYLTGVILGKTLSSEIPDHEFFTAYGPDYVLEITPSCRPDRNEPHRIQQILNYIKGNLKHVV

Histone deacetylase 3 [2] = molecular target: T3, Histone deacetylase 3 (Homo sapiens, UniProt O15379); assay: Inhibition of HDAC3 (unknown origin)
Histone deacetylase 1 [3] = molecular target: T4, Histone deacetylase 1 (Homo sapiens, UniProt Q13547); assay: Inhibition of HDAC1 (unknown origin)
Histone deacetylase 4 = Histone deacetylase 4 (Homo sapiens, UniProt P56524); assay: Inhibition of HDAC4 (unknown origin)
Histone deacetylase 11 = molecular target: T5, Histone deacetylase 11 (Homo sapiens, UniProt Q96DB2); assay: Inhibition of human recombinant full length FLAG-tagged HDAC11 transfected in HEK293T cells using Ac-ETDKrnyr-AMC as substrate incubated for 30 mins by fluorescence based analysis
T5 sequence (Q96DB2 whole entry): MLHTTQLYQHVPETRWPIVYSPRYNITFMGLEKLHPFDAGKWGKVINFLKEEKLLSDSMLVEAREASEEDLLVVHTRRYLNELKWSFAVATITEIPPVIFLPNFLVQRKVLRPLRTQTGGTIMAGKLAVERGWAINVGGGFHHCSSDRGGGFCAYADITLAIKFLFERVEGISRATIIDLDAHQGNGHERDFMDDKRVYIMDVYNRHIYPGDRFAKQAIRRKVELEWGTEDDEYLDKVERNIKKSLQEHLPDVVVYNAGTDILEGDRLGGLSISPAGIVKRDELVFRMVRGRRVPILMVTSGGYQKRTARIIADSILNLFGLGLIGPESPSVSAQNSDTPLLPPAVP

[4] = molecular target: T6, Protein deacetylase HDAC6 (Homo sapiens, UniProt Q9UBN7); assay: Inhibition of HDAC6 (unknown origin)
T6 sequence (Q9UBN7 whole entry): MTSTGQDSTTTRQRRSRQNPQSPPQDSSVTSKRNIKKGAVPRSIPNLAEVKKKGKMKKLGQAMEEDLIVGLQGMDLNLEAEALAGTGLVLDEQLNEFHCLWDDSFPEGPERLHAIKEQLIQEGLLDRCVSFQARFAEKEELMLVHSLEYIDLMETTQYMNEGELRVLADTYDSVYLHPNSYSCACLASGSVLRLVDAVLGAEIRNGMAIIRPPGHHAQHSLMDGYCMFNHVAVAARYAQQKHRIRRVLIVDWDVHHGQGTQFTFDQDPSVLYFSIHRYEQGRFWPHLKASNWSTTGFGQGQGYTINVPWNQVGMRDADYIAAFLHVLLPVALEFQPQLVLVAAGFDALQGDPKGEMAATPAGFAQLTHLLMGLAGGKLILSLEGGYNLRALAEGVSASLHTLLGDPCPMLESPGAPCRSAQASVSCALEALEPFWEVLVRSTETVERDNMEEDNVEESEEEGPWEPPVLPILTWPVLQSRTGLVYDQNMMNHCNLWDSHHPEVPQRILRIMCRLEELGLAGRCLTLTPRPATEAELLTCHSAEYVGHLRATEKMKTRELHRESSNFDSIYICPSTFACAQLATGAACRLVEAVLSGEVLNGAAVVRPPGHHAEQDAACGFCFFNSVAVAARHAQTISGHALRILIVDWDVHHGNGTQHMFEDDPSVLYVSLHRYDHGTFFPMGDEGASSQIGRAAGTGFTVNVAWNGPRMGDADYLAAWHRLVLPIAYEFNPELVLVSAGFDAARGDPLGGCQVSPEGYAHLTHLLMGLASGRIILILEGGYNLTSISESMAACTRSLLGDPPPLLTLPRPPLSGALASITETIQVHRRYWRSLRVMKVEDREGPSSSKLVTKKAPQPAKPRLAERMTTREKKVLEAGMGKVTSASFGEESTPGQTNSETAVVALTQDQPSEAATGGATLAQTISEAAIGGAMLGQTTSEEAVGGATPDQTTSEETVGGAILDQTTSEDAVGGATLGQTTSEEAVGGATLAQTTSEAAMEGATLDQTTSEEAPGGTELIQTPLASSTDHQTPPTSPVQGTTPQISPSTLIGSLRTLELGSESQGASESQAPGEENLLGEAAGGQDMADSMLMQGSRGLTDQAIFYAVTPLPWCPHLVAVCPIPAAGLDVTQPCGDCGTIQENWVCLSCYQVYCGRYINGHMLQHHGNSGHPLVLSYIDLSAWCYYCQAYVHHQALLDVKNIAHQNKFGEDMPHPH

Histone deacetylase 2 [5] = molecular target: T1, Histone deacetylase 2; assay: Inhibition of human HDAC2
Histone deacetylase 3 [6] = molecular target: T3, Histone deacetylase 3; assay: Inhibition of human HDAC3
Histone deacetylase 1 [7] = molecular target: T4, Histone deacetylase 1; assay: Inhibition of human HDAC1
[8] = Inhibition of human HDAC1 (379 to 382 residues) using RHKKAc-AMC as substrate incubated for 60 mins by […] assay

T4 sequence (Q13547 whole entry): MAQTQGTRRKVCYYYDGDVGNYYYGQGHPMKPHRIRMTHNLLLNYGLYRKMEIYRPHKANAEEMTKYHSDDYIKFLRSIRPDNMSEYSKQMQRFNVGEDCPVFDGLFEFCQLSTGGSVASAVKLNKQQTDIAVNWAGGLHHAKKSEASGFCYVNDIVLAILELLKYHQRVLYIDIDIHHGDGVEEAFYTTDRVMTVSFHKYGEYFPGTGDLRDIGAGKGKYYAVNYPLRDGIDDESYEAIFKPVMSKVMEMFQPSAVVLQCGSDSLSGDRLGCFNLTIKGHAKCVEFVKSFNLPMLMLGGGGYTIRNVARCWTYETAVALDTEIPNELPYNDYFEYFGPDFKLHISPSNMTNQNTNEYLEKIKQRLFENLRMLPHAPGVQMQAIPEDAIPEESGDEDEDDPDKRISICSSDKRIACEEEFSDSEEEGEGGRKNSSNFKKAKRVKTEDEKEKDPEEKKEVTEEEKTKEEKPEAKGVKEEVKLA
T3 sequence (O15379 whole entry): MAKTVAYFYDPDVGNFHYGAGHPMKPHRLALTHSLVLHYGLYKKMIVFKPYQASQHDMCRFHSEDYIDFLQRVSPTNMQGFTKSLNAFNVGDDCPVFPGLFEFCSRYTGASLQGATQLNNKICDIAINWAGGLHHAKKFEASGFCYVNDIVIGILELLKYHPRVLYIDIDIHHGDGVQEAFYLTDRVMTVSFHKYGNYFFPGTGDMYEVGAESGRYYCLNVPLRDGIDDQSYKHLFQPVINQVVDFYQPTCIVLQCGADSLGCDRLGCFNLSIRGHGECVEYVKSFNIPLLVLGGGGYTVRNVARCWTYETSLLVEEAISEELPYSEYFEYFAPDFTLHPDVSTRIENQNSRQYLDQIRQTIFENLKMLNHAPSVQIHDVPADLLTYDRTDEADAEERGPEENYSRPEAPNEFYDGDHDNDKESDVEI
Chain of Histone deacetylase 4 (P56524 whole entry): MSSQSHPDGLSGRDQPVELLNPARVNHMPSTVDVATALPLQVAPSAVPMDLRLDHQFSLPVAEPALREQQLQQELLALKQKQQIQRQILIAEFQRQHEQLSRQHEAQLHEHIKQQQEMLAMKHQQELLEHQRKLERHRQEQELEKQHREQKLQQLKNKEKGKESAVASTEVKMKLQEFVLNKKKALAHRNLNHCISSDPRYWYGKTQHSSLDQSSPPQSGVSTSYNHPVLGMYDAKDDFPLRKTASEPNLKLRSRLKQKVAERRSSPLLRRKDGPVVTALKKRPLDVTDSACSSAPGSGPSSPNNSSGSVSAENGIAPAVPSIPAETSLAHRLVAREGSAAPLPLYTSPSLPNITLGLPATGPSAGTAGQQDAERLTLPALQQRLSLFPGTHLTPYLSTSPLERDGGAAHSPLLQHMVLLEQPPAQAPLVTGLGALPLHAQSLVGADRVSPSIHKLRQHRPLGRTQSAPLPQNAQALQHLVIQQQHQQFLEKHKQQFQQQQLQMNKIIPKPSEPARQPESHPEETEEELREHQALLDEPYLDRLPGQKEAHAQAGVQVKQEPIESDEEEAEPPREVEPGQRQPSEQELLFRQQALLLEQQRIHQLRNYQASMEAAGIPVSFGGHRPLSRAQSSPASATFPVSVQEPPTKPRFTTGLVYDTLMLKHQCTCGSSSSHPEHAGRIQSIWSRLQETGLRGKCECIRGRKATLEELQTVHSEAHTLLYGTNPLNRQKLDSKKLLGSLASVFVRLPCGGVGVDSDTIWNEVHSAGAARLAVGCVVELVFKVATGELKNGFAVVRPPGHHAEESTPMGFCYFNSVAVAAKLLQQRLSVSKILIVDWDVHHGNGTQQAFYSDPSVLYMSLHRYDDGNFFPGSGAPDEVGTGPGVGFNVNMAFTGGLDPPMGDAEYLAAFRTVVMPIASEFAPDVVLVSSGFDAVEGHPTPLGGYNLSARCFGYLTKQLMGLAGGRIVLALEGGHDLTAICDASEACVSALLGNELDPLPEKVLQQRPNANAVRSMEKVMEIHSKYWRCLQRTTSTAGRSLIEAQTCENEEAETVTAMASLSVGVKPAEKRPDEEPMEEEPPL
T1 sequence (Q92769 whole entry): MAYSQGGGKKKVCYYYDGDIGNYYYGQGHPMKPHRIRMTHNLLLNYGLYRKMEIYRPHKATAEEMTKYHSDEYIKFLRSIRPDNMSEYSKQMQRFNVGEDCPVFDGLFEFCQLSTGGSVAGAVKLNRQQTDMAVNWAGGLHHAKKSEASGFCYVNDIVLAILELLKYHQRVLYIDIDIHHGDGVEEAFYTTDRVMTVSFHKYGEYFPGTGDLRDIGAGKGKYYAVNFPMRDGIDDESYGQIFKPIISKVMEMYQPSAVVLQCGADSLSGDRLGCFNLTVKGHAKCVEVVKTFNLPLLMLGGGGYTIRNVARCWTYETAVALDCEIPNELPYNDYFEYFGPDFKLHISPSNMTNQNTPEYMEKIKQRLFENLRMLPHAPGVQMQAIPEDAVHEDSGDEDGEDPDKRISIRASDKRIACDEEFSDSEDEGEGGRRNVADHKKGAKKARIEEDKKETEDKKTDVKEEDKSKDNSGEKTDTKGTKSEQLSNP

IC50 (Histone deacetylase 11): 910 nM
Compound: CCCCCCCCCCCCCCCCNNC(=O)c1ccc(N(C)C)cc1

IC50 (Histone deacetylase 1 [3]): 0.42 nM
IC50 [4]: 8.96 µM
Compound: CCCNNC(=O)c1ccc(Nc2nccc(N(C)c3ccc4c(C)n(C)cc4c3)n2)cc1

IC50 (Histone deacetylase 2 [5]): 530 nM
IC50 (Histone deacetylase 3 [6]): 379 nM
IC50 (Histone deacetylase 1 [7]): 828 nM
Compound: CCCNNC(=O)CCCCCCC(=O)Nc1ccccc1

IC50 [8]: 133 nM
Compound: CCCCNNC(=O)c1ccc(Br)cc1

The next lines start with the compound.

Compound: CCCC(CCC)C(=O)N[C@@H](Cc1ccccc1)C(=O)NNc1ccccc1
IC50 (Histone deacetylase 2 [1]): 2020 nM
IC50 (Histone deacetylase 8): 1540 nM
IC50 (Histone deacetylase 3 [2]): 1490 nM
IC50 (Histone deacetylase 1 [3]): 390 nM
IC50 (Histone deacetylase 4): 3.18 µM

Compound: CCCC(CCC)C(=O)O [VALPROIC ACID]
IC50 (Histone deacetylase 4): > 100 µM

— ChEMBL document CHEMBL5523771, “Hydrazides as Inhibitors of Histone Deacetylases” (J Med Chem, 2024)
